# Legend:
# [1] = Photoluminescence quantum yield determination; type: physicochemical
# Description: For the photoluminescence spectroscopy, all emission spectra were acquired on a Horiba Scientific PTI QuantaMaster fluorometer. Low temperature emission spectra were recorded by adding samples in 1:1 DCM:toluene into quartz EPR tubes and lowering the tube into an optical dewar filled with liquid N2. Excitation emission matrices were acquired on a Horiba Scientific Fluorolog-3 spectrofluorometer.
# The samples, sealed in NMR tubes, were individually placed in an integrating sphere (Thorlabs, IS200-4) with a PbSe detector (Thorlabs, PDA20H) on one port and directly excited by an 808 nm diode laser (Thorlabs, M9-808-0150) of 15 W/cm^2 average intensity under 1 kHz square-wave modulation. The detector signal S, with and without a silicon window on the detector port, was recorded with the sample and with a DCM blank. […] The photoluminescence quantum yield is therefore SS,Si/(SD−SS)×( ? 808/ ? λS)×T^−1 where the subscripts S, D and Si respectively denote the sample, DCM blank, and silicon window. R is the wavelength-dependent PbSe detector responsivity, T is the total emission power transmitted by the silicon window, and λS is the average emission wavelength determined by integration of the spectrum. The detector responsivity is linear with wavelength in this spectral range so that ? 808/ ? λS=808/λS. Due to the spectral overlap between the sample emission and the soft absorption edge of silicon, we calculate T explicitly as ∫E(λ)dλ×
# where E(λ) is the normalized sample emission spectrum and T(λ) is the T(λ) normalized silicon window transmission spectrum.
# Comparative results for the diradical dication PtTTFtt against a conventional near IR dye (IR 26) provide PLQY of 0.09% in oxygenated 1,2-dichloroethane for compound 2 (PtTTFtt) in comparison to 0.05% for IR 26, as illustrated in FIG. 10.
# [2] = 1,2-dichloroethane, background statement; cited from earlier work
# [3] = 1,2-dichloroethane, background statement; cited from earlier work; remark: listed apart in the source
# [4] = Cell viability assay after 72 hr treatment; type: cell-based; details: 1% DMSO solution, preliminary
# Description: FIG. 21 is a cell viability assay of compound 4 after 72 hr treatment, using 1% DMSO solution in accordance with certain disclosed embodiments.
# [5] = Stability of compound 4 (irradiation, air, serum, buffer, water); type: physicochemical
# [6] = Reactivity in the presence of small nucleophiles and ubiquitin (preliminary proteomics studies); details: ubiquitin
molecule,measurement,setting,value
"ClC1=C(/C=C/c2cc(-c3ccccc3)[s+]c3ccccc23)CCC/C1=C\C=C1/C=C(c2ccccc2)Sc2ccccc21.[O-][Cl+3]([O-])([O-])[O-] [IR 26, 4-(7-(2-phenyl-4H-1-benzothiopyran-4-ylidene)-4-chloro-3,5-trimethylene-1,3,5-heptatrienyl)-2-phenyl-1-benzothiopyrylium perchlorate]",photoluminescence quantum yield (PLQY),"[1]; oxygenated 1,2-dichloroethane",0.05%
same,PLQY,[2],0.05%
same,emission,[3],around 1130 nm
"(Pt{1,5-cyclooctadiene})2 tetrathiafulvalene-2,3,6,7 tetrathiolate diradical dication [Compound 4]",toxicity,[4],nontoxic
same,"stability to air, fetal bovine serum and phosphate buffer",[5],demonstrated
same,persistence of photoluminescence,[5]; continuous irradiation,21 h
same,stability to water and air,[5]; crystallized out of 1:2 MeCN:water over 6 months,remarkable stability
same,integrity after exposure to proteins and small nucleophiles,[6],remains intact
[(Pt{P(4-CF3Ph)3}2)2TTFtt][BAr^F4]2 [Compound 3],photoluminescence quantum yield (PLQY),"[1]; 57 μM, dichloromethane, 298K, anaerobic conditions, highest of compounds 1-3",0.43%
[(Pt{dppe})2TTFtt][BAr^F4]2 [Compound 2],photoluminescence quantum yield (PLQY),"[1]; oxygenated 1,2-dichloroethane",0.09%

# — US20250319211A1, “NEAR IR LUMINESCENCE AND OPTICALLY ADDRESSABLE QUANTUM SENSING AND MAGNETIC IMAGING WITH RADICALOID TETRATHIAFULVALENE TETRATHIOLATES” (The University of Chicago, priority 2022, published 2025)
